Columns and labels:
Botrytis cinerea [1] = type: cell-based; conditions: 120 h, 25 ppm by volume, Vogel medium, 20° C., five days, dark, read-out: growth inhibition ratio
Botrytis cinerea [2] = experiment: Control test of cucumber gray mold (sprayed young cucumber seedlings); type: in vivo; conditions: 96 h, four days after inoculation; for pest or weed control at 25 ppm: 25 ppm by mass spray; for pest or weed control at 125 ppm: 125 ppm by mass spray
Description: Then, the drug liquid was sprayed onto young cucumber seedlings cultivated in a nursery pot (variety “Jihai”-based, cotyledon stage), and then air-dried. […] They were left still in a moist room at 20° C. Four days after inoculation, leaves of the young cucumber seedlings were visually observed, and the control value was calculated from the lesion area ratio in accordance with the following equation. [formula]

Venturia inaequalis = experiment: Control test of apple scab disease (sprayed young apple seedlings); type: in vivo; conditions: 125 ppm by mass spray, 12 to 14 days after inoculation
[3] = system: Erysiphe graminis f.sp.tritici; experiment: Control test of wheat powdery mildew disease (sprayed young wheat seedlings); type: in vivo; conditions: Blumeria graminis, 144 h, 125 ppm by mass spray, six days after inoculation
Glomerella cingulata = experiment: Fungicidal effect test against fungi causing grape ripe rot disease; conditions: Colletotrichum gloeosporioides, 72 h, read-out: growth inhibition ratio
Colletotrichum acutatum = experiment: Fungicidal effect test against fungi causing apple anthracnose; conditions: 96 h, read-out: growth inhibition ratio
Fusarium graminearum = experiment: microbe, parasite or virus in culture; type: cell-based; conditions: 96 h, read-out: growth inhibition ratio

COC(=O)N(Cc1ccc(OC)cc1C)NC(=O)c1c(C)cncc1Oc1cccc(C2CC2)c1 [b-229]
≥ 75%: inhibition of growth at 25 ppm (Botrytis cinerea [1]) | pest or weed control at 25 ppm (Botrytis cinerea [2]) | pest or weed control at 125 ppm (Botrytis cinerea [2]) | pest or weed control at 125 ppm (Venturia inaequalis) | pest or weed control at 125 ppm [3] | inhibition of growth at 25 ppm (Glomerella cingulata) | inhibition of growth at 25 ppm (Colletotrichum acutatum) | inhibition of growth at 25 ppm (Fusarium graminearum)

CCc1cncc(Oc2cccc(C3CC3)c2F)c1C(=O)NN(Cc1ccc(OC)cc1C)C(=O)OC [b-230]
≥ 75%: inhibition of growth at 25 ppm (Botrytis cinerea [1]) | pest or weed control at 25 ppm (Botrytis cinerea [2]) | pest or weed control at 125 ppm (Botrytis cinerea [2]) | pest or weed control at 125 ppm (Venturia inaequalis) | pest or weed control at 125 ppm [3] | inhibition of growth at 25 ppm (Glomerella cingulata) | inhibition of growth at 25 ppm (Colletotrichum acutatum) | inhibition of growth at 25 ppm (Fusarium graminearum)

COC(=O)N(Cc1ccc(C)cc1C)NC(=O)c1c(Cl)cncc1Oc1cccc(Cl)c1F [b-231]
≥ 75%: inhibition of growth at 25 ppm (Botrytis cinerea [1]) | pest or weed control at 25 ppm (Botrytis cinerea [2]) | pest or weed control at 125 ppm (Botrytis cinerea [2]) | pest or weed control at 125 ppm (Venturia inaequalis) | pest or weed control at 125 ppm [3] | inhibition of growth at 25 ppm (Glomerella cingulata) | inhibition of growth at 25 ppm (Colletotrichum acutatum) | inhibition of growth at 25 ppm (Fusarium graminearum)

Cc1ccc(CN(NC(=O)c2cc(C)nnc2Oc2cccc(C3CC3)c2F)C(=O)OC2COC2)c(C)c1 [b-232]
≥ 75%: inhibition of growth at 25 ppm (Botrytis cinerea [1]) | pest or weed control at 25 ppm (Botrytis cinerea [2]) | pest or weed control at 125 ppm (Botrytis cinerea [2]) | pest or weed control at 125 ppm (Venturia inaequalis) | pest or weed control at 125 ppm [3] | inhibition of growth at 25 ppm (Glomerella cingulata) | inhibition of growth at 25 ppm (Colletotrichum acutatum) | inhibition of growth at 25 ppm (Fusarium graminearum)
